Data taken from article PMC8113213, “Physiologically based kinetic modelling based prediction of in vivo rat and human acetylcholinesterase (AChE) inhibition upon exposure to diazinon” (Archives of Toxicology, 2021).
Where two headings read alike, the source gives them in different places.

Experiments:
[1] = rat; ref Poet et al. 2004; cited from earlier work
[2] = human; ref Garfitt et al. 2002; Poet et al. 2004; cited from earlier work
[3] = molecular target: T1, rat RBC AChE (Rattus norvegicus, UniProt P37136); assay: In vitro AChE inhibition assay (Ellman) with extracted rat RBC AChE; type: biochemical; conditions: rat; IC50 DZO/IC50 DZN, TEF of DZO set at 1.0
T1 construct: the membrane fraction (containing AChE) was sedimented by centrifugation at 20,000g for 40 min; tissue BioIVT; host or cells: rat red blood cell membranes (from whole blood)
T1 sequence (P37136 other isoform, or with tags, fused parts or gaps): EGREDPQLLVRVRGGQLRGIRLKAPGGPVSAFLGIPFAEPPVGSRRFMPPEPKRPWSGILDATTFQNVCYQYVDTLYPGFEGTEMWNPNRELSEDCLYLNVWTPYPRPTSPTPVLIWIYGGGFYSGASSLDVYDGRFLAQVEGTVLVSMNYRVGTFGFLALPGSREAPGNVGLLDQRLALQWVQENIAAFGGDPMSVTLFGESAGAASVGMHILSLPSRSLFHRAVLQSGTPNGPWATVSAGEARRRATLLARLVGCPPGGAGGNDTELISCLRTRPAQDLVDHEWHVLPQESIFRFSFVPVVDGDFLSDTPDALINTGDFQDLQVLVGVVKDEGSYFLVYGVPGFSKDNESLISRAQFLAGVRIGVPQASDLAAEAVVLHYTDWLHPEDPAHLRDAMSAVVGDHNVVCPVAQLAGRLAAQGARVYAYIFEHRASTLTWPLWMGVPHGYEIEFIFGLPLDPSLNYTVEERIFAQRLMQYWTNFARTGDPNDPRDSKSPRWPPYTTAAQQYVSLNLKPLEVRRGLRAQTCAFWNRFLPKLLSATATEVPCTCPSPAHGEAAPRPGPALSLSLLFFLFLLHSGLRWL
Procedure: (§1) However, since recombinant rat AChE was not commercially available, extracted rat RBC AChE was used. […] The concentration of DTNB was calculated based on the concentration ratio (ATC/DTNB) of 2 (Stern et al. [2014]). […] To initiate the inhibition reaction, 1 µl rhAChE or rat AChE (final concentration 0.6 mU/ml) was added to the incubation. The total incubation volume was 50 µl. After 15 min incubation at 37℃, 150 µl reaction reagents (mixture of ATC at a final concentration of 150 µM and DTNB at a final concentration of 75 µM) were added into each well. The final total volume of each well was 200 µl. Subsequently, the 96-well plate was measured continuously for 10 min at absorbance 412 nm at 37℃ to quantify the remaining AChE activity.
(§2) The rhAChE and rat AChE activity were expressed as the remaining AChE activity relative to solvent control (100% activity) and positive control (0% activity) based on Eq. (2):2 AChEactivity\%=A412t10-t0testcompound-A412t10-t0positivecontrol/A412t10-t0solventcontrol-A412t10-t0positivecontrol×100\% , where the A412(t10 − t0)test compound is the change in the absorbance at A412 nm between 0 and 10 min for the test compound, the A412(t10 − t0)positive control is the change in the absorbance at A412 nm between 0 and 10 min for the CPO sample, and the A412(t10 − t0)solvent control is the change in the absorbance at A412nm between 0 and 10 min for the 0.2% ethanol sample.

[4] = molecular target: T2, recombinant human AChE (rhAChE) (Homo sapiens, UniProt P22303); assay: biochemical
T2 construct: purchased Sigma-Aldrich Co
T2 sequence (P22303 32-614): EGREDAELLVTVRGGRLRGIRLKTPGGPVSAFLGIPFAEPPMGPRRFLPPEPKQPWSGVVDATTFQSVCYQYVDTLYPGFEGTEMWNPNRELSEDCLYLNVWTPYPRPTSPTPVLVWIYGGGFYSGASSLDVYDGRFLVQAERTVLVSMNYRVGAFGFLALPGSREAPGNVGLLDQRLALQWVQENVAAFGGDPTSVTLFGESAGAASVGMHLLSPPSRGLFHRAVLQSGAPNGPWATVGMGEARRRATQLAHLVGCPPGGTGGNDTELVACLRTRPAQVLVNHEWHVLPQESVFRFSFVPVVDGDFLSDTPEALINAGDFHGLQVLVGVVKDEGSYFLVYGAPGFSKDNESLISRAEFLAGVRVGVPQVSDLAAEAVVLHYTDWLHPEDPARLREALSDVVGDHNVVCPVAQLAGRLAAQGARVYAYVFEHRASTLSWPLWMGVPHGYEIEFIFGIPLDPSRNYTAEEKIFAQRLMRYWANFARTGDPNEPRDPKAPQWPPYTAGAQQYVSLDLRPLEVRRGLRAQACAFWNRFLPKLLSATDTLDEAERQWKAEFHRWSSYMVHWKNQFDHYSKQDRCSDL
Procedure: as §1, §2

[5] = molecular target: T3, PON1 (Homo sapiens, UniProt P27169); assay: in vitro; type: in vitro ADME; conditions: for Km: pH 7.4
T3 construct: 1 µl of human or rat liver microsomes (final concentration 0.1 mg microsomal protein/ml); tissue Corning; host or cells: human liver microsomes, pooled from 20 donors
T3 sequence (P27169 whole entry): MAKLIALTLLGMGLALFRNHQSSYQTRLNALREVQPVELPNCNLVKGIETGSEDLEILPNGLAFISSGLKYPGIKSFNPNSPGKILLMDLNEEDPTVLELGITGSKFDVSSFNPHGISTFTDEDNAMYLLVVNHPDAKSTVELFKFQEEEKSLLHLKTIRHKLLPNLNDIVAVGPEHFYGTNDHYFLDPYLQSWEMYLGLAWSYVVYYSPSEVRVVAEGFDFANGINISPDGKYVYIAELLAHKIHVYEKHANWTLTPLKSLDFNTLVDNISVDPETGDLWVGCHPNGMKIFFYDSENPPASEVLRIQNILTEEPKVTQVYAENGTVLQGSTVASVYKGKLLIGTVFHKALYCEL
Procedure: (§3) Preliminary studies were carried to optimize and select the incubation conditions with respect to linearity for both incubation time and microsomal/plasma protein concentration (data not shown). […] After 1 min preincubation in a 37 °C water bath, 1 µl of human or rat liver microsomes (final concentration 0.1 mg microsomal protein/ml), or 1 µl of human or rat plasma (final concentration 0.385 mg plasma protein/ml for human plasma and 0.300 mg plasma protein/ml for rat plasma) was added to initiate the reaction. The total incubation mixture was 200 µl. Control incubations were carried out by replacing liver microsomes or plasma with buffer. The reaction was terminated after 1 min incubation (human samples) or 2 min incubation (rat samples) by adding 200 µl ice-cold ACN. Subsequently, samples were centrifuged at 16000 g (4℃) for 5 min, and supernatants were further diluted (30 × for liver sample and 40 × for plasma sample) in a mixture of ACN and 50 mM Tris–HCl (pH 7.4) (ratio 1:1, v/v) before analysis by LC–MS/MS for quantification of metabolite formation.
(§4) The chromatographic separations were conducted on a Kinetex® 1.7 µm Phenyl-Hexyl 100 Å LC column (100 × 2.1 mm). The injection volume was 1 µl at a flow rate of 0.3 ml/min. The temperature of the column was kept at 40℃. The mobile phase A consisted of ultrapure water with 0.1% (v/v) formic acid, and mobile phase B consisted of acetonitrile (ACN) with 0.1% (v/v) formic acid. […] The instrument was used in positive mode with multiple reaction monitoring (MRM). The optimized acquisition parameters for DZN, DZO and the metabolite IMHP are listed in Supplementary data I.
(§5) The calculation was done using GraphPad Prism 5 for Windows, version 5.04 (GraphPad software, San Diego California USA).

[6] = Unbound fraction in the in vitro medium by rapid equilibrium dialysis (RED); type: in vitro ADME
Procedure: To assess whether this assumption is reasonable, the fuDZOin vitro was determined. This was done using rapid equilibrium dialysis (RED) performed in line with the manufacturer’s protocol (Thermo Fisher Scientific [2012]). […] The whole device was then incubated for 5 h at 37℃ on a shaker at 250 rmp to reach equilibrium. Then 50 µl of post-incubation sample were separately collected from the sample and buffer chambers into the corresponding Eppendorf tubes. After this 50 µl of PBS buffer was added to the sample taken from the sample chamber and 50 µl of in vitro medium was added to the sample taken from buffer chamber and subsequently 300 µl ice-cold 90% acetonitrile (ACN/water, v/v) were added to both samples to precipitate the protein. All samples were put on ice for 30 min, followed by centrifugation for 30 min at 15,000g. The supernatants were collected for LC–MS/MS analysis of the amount of DZO.

[7] = molecular target: T4, PON1 (Rattus norvegicus, UniProt P55159); assay: in vitro; type: in vitro ADME; set-up: 1 µl of human or rat liver microsomes (final concentration 0.1 mg microsomal protein/ml); tissue Corning; host or cells: rat liver microsomes (Sprague–Dawley, male); conditions: for Km: pH 7.4
T4 sequence (P55159 whole entry): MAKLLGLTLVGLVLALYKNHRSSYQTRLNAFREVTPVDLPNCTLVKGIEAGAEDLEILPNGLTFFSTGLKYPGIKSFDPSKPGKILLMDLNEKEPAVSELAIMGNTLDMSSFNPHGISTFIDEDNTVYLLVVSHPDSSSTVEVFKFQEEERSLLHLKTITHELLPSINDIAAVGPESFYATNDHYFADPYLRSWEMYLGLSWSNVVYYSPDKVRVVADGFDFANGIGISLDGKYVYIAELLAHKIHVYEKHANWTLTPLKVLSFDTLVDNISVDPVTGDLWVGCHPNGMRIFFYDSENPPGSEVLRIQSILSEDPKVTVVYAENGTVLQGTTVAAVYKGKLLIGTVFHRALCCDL
Procedure: as §3, §4, §5

[8] = molecular target: T4, PON1; conditions: ref Makhaeva et al. 2009; cited from earlier work

## CCOP(=O)(O)OCC [DEP, diethylphosphate]
[1]
  Ke, elimination into the urine: 0.29 h⁻¹
[2]
  Ke, elimination into the urine: 12 h⁻¹

## CCOP(O)(=S)OCC [DETP, diethylthiophosphate]
[1]
  Ke, elimination into the urine: 0.29 h⁻¹
[2]
  Ke, elimination into the urine: 12 h⁻¹

## CCOP(=O)(OCC)Oc1cc(C)nc(C(C)C)n1 [DZO, Diazoxon]
[3]
  toxic equivalency factor (TEF): 1.0
[4]; human, IC50 DZO/IC50 DZN, TEF of DZO set at 1.0
  toxic equivalency factor (TEF): 1.0
[4]; rhAChE, 15 min incubation at 37℃, read-out: IC50 for inhibition of AChE activity
  IC50: 44 nM
[5]
  Vmax DZO to IMHP, plasma: 124.000 nmol/min/mg plasma protein
[5]; human liver microsomes
  Vmax DZO to IMHP, liver: 53.490 nmol/min/mg microsomal protein
  Km: 557 µM
[5]; human plasma
  Km: 701 µM
[6]; in vitro medium in a RED insert device, read-out: recovery rate of post-dialysis in the in vitro medium
  recovery at 5 h, 0.05 µM: 74%
[6]; in vitro medium with 0.1 mg/ml BSA, read-out: unbound fraction in the in vitro medium (fu in vitro)
  fraction unbound at 5 h, 0.05 µM: 0.96
[7]; rat liver microsomes
  Km: 668 µM
  Vmax DZO to IMHP, liver: 691.100 nmol/min/mg microsomal protein
[7]; rat plasma
  Km: 536 µM
  Vmax DZO to IMHP, plasma: 431.400 nmol/min/mg plasma protein
[7]; rat versus human liver
  PON1-mediated conversion of DZO faster in rat liver than in human liver: 10.7 fold
  higher Vmax of PON1-mediated conversion in rat liver: 12.9 fold
[7]; rat versus human plasma
  PON1-mediated conversion of DZO faster in rat plasma than in human plasma: 4.5 fold
  higher Vmax of PON1-mediated conversion in rat plasma: 3.5 fold

## Cc1cc(=O)nc(C(C)C)[nH]1 [IMHP, 2-isopropyl-4-methyl-6-hydroxypyrimidine]
[1]
  Ke, elimination into the urine: 0.29 h⁻¹
[2]
  Ke, elimination into the urine: 12 h⁻¹

## CCOP(=O)(OCC)Oc1ccc([N+](=O)[O-])cc1 [paraoxon]
[8]
  faster PON1-mediated hydrolysis by rat than human plasma samples: approximately 4 fold
